Measurements reported in US10023592B2, “Bromodomain inhibitors” (Celgene Quanticel Research, Inc., priority 2013, dated 2018).

Legend:
[1] = tested on: HL-60, human proleukemia cells; assay: Cell-MTS proliferation assay, HL-60; type: cell-based; settings: 168 hr
Protocol: (§1) The Cell-MTS assay is a 7-day plate-based colorimetric assay which quantifies the amount of newly generated NADH in the presence or absence of test compound. The NADH level is used for the quantification of cancer cell proliferation.
(§2) Established cancer cell lines with a variety of driving mutations were obtained from American Type Culture Collection (ATCC) and routinely passaged according to ATCC protocols. For routine assay, these cells were seeded at densities which enabled ˜90% confluence after 7 days of culture. Raji, human Burkitts lymphoma cells, (cMYC) were seeded at 15,000 cells per 96-well. HL-60, human proleukemia cells, (NRAS, p16, p53, c-Myc amplified) were seeded at 5,000 cells per 96-well. NCI-H460, human non-small cell lung cancer cells, (KRAS, PIK3CA, STLK11, p16) were seeded at 3,000 cells per 96-well. 24 hr after plating, cells received an 11-point dilution of test compound with final concentration ranges from 100 μM to 2.0 nM. […] At the end of this incubation period, 80 μL of media is removed and 20 μL of CellTiter 96® AQueous Non-Radioactive Cell Proliferation Assay soln (Promega) was added. The cells were incubated until the OD490 was >0.6. IC50 values were calculated using the IDBS XLfit software package and include background subtracted OD490 values and normalization to DMSO controls. Cellular proliferation IC50 values were uploaded and archived using the Chem Biography Platform.

[2] = tested on: Raji, human Burkitts lymphoma cells; assay: Cell-MTS proliferation assay, Raji; type: cell-based; settings: 168 hr
Protocol: as §1, §2

BRD4(BD1) = BRD4(BD1) (Homo sapiens (Human), UniProt O60885); assay: In vitro enzyme inhibition assay (BRD4 AlphaScreen); type: binding
Method in brief: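 His-tagged BRD4 tested by AlphaScreen for binding of biotinylated H4K5/8/12/16-tetraacetyl peptide. After 20 min at room temperature, streptavidin donor and nickel chelate acceptor beads added (5 μg/mL final each). IC50 determined.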

[3] = tested on: NCI-H460, human non-small cell lung cancer cells; assay: Cell-MTS proliferation assay, NCI-H460; type: cell-based; settings: Homo sapiens, 168 hr
Protocol: as §1, §2

[4] = Homo sapiens, HL-60, Cell-MTS, class symbols A/B/C
[5] = Homo sapiens, Raji, Cell-MTS, class symbols A/B/C
[6] = NCI-H460, Cell-MTS, class symbols A/B/C
[7] = Homo sapiens, Cell-MTS proliferation, HL-60 cells
[8] = in vitro enzyme inhibition assay
[9] = Cell-MTS proliferation, NCI-H460 cells
[10] = Homo sapiens, HL-60, Cell-MTS proliferation
[11] = Homo sapiens, Raji, Cell-MTS proliferation
[12] = NCI-H460, Cell-MTS proliferation

Compound	IC50 [1, 4] [nM]	IC50 [2, 5] [nM]	IC50 (BRD4(BD1); class symbols A/B/C) [nM]	IC50 (BRD4(BD1); [8]) [nM]	IC50 [2, 11] [nM]	IC50 [3, 12] [nM]	further results
CNc1cc(-c2ccc(OC)c(NS(C)(=O)=O)c2)cn(C)c1=O [Example 110, N-[2-methoxy-5-[1-methyl-5-(methylamino)-6-oxopyridin-3-yl]phenyl]methanesulfonamide]	500 to 5000	> 5000	< 500				IC50 [3, 6]: > 5000 nM
Cn1cc(-c2cc(S(C)(=O)=O)ccc2NCC2CC2)ccc1=O [Example 468, 5-[2-(cyclopropylmethylamino)-5-methylsulfonylphenyl]-1-methylpyridin-2-one]				< 500			IC50 [1, 7]: 500 to 5000 nM; IC50 ([2]; Homo sapiens, Cell-MTS proliferation, Raji cells): > 5000 nM; IC50 [3, 9]: > 5000 nM
COc1cc(-c2nc(NS(C)(=O)=O)ncc2Oc2ccc(F)cc2F)cn(C)c1=O [Example 167, N-[5-(2,4-difluorophenoxy)-4-(5-methoxy-1-methyl-6-oxopyridin-3-yl)pyrimidin-2-yl]methanesulfonamide]				< 500	500 to 5000	> 5000	
CCS(=O)(=O)Nc1ncc(Oc2ccc(F)cc2F)c(-c2cc(OC)c(=O)n(C)c2)n1 [Example 168, N-[5-(2,4-difluorophenoxy)-4-(5-methoxy-1-methyl-6-oxopyridin-3-yl)pyrimidin-2-yl]ethanesulfonamide]					< 500	> 5000	IC50 [1, 10]: < 500 nM
Cn1cc(-c2nc(NS(C)(=O)=O)ncc2Oc2ccc(F)cc2F)c2ccccc2c1=O [Example 165, N-[5-(2,4-difluorophenoxy)-4-(2-methyl-1-oxoisoquinolin-4-yl)pyrimidin-2-yl]methanesulfonamide]				< 500	500 to 5000	> 5000	
Cc1cc(-c2cc(S(N)(=O)=O)ccc2NCC2CC2)cn(C)c1=O [Example 452, 4-(cyclopropylmethylamino)-3-(1,5-dimethyl-6-oxopyridin-3-yl) benzenesulfonamide]				500 to 5000			IC50 [1, 7]: 500 to 5000 nM; IC50 [3, 9]: > 5000 nM
Cc1c(-c2cc(NS(C)(=O)=O)ccc2Oc2ccc(F)cc2F)cn(C)c(=O)c1C [Example 103, N-[4-(2,4-difluorophenoxy)-3-(1,4,5-trimethyl-6-oxopyridin-3-yl)phenyl]methanesulfonamide]	< 500	500 to 5000					IC50 [3, 6]: > 5000 nM
Cn1cc(-c2cc(S(C)(=O)=O)ccc2OCC2CC2)c2cc(C(F)(F)F)ccc2c1=O [Example 197]					500 to 5000	> 5000	
Cc1cc(-c2cn(CS(C)(=O)=O)c(=O)cc2Oc2ccc(F)cc2F)cn(CC2CC2)c1=O [Example 250]					500 to 5000	> 5000	IC50 [1, 10]: < 500 nM
CCS(=O)(=O)c1ccc(NCC2CC2)c(-c2cc(Cl)c(=O)n(C)c2)c1 [Example 275]					< 500	> 5000	IC50 [1, 10]: < 500 nM
Cn1cc(-c2cccc(S(N)(=O)=O)c2)c2cc(F)ccc2c1=O [Example 48, 3-(6-fluoro-2-methyl-1-oxoisoquinolin-4-yl) benzenesulfonamide]			500 to 5000				IC50 ([1]; Cell-MTS, class symbols A/B/C): 500 to 5000 nM; IC50 ([2]; Cell-MTS, class symbols A/B/C): 500 to 5000 nM
Cc1cc(-c2cc(OS(N)(=O)=O)ccc2OCC2CC2)cn(C)c1=O [Example 215, [4-(cyclopropylmethoxy)-3-(1,5-dimethyl-6-oxopyridin-3-yl)phenyl]sulfamate]					< 500	> 5000	IC50 [1, 10]: < 500 nM
C#Cc1cc(-c2cc(NS(C)(=O)=O)ccc2Oc2ccc(F)cc2F)cn(C)c1=O [Example 286, N-[4-(2,4-difluorophenoxy)-3-(5-ethynyl-1-methyl-6-oxopyridin-3-yl)phenyl]methanesulfonamide]				< 500	500 to 5000	> 5000	
CCNS(=O)(=O)c1cccc(-c2cn(C)c(=O)c3cnccc23)c1 [Example 53, N-ethyl-3-(2-methyl-1-oxo-2,7-naphthyridin-4-yl) benzenesulfonamide]			500 to 5000				IC50 ([1]; Cell-MTS, class symbols A/B/C): > 5000 nM; IC50 ([2]; Cell-MTS, class symbols A/B/C): > 5000 nM
Cn1cc(-c2nc(S(C)(=O)=O)ccc2OCC2CC2)c2cc(F)ccc2c1=O [Example 202, 4-[3-(cyclopropylmethoxy)-6-methylsulfonylpyridin-2-yl]-6-fluoro-2-methylisoquinolin-1-one]				< 500	< 500	> 5000	
Cn1cc(-c2cc(NS(C)(=O)=O)cc(C(F)(F)F)c2)c2ccccc2c1=O [Example 40, N-[3-(2-methyl-1-oxoisoquinolin-4-yl)-5-(trifluoromethyl)phenyl] methanesulfonamide]	500 to 5000	500 to 5000	500 to 5000				
Cn1cc(-c2cc(NS(C)(=O)=O)c(F)cc2F)c2ccccc2c1=O [Example 35, N-[2,4-difluoro-5-(2-methyl-1-oxoisoquinolin-4-yl)phenyl]methanesulfonamide]	500 to 5000	500 to 5000	500 to 5000				
COc1ccc(-c2cn(C)c(=O)c3ccccc23)cc1S(=O)(=O)NCc1ccccc1 [Example 15, N-benzyl-2-methoxy-5-(2-methyl-1-oxoisoquinolin-4-yl)benzenesulfonamide]	500 to 5000	< 500	500 to 5000				

Further lines, with some results ahead:

IC50 [1, 4] [nM]	IC50 [2, 5] [nM]	IC50 (BRD4(BD1); class symbols A/B/C) [nM]	IC50 (BRD4(BD1); [8]) [nM]	IC50 [2, 11] [nM]	IC50 [3, 12] [nM]	Compound	further results
			< 500	500 to 5000	> 5000	CCS(=O)(=O)c1cc(-c2cn(C)c(=O)c3ccccc23)c(NCC2CC2)s1 [Example 205, 4-[2-(cyclopropylmethylamino)-5-ethylsulfonylthiophen-3-yl]-2-methylisoquinolin-1-one]	IC50 [1, 10]: 500 to 5000 nM
				< 500	> 5000	Cn1cc(-c2cc(OS(N)(=O)=O)ccc2OCC2CC2)c2ccccc2c1=O [Example 214, [4-(cyclopropylmethoxy)-3-(2-methyl-1-oxoisoquinolin-4-yl)phenyl]sulfamate]	IC50 [1, 10]: < 500 nM
				500 to 5000	> 5000	CCCOc1ccc(S(C)(=O)=O)cc1-c1cn(C)c(=O)c2cnc(-c3cnn(C)c3)nc12 [Example 228]	IC50 [1, 10]: < 500 nM
				< 500	> 5000	CCS(=O)(=O)c1ccc(OCC2CC2)c(-c2cn(C)c(=O)c3c2OCC(=O)N3)c1 [Example 365, 8-[2-(cyclopropylmethoxy)-5-ethylsulfonylphenyl]-6-methyl-4H-pyrido[4,3-b][1,4]oxazine-3,5-dione]	IC50 [1, 10]: < 500 nM
			< 500	500 to 5000	> 5000	Cc1cc(-c2nc(CS(C)(=O)=O)ncc2Oc2ccc(F)cc2F)cn(C)c1=O [Example 147, 5-[5-(2,4-difluorophenoxy)-2-(methylsulfonylmethyl)pyrimidin-4-yl]-1,3-dimethylpyridin-2-one]	
500 to 5000	500 to 5000	500 to 5000				CN(C(=O)OC(C)(C)C)c1cccc(-c2cn(C)c(=O)c3ccccc23)c1 [Example 31, tert-butyl N-methyl-N-[3-(2-methyl-1-oxoisoquinolin-4-yl)phenyl]carbamate]	
500 to 5000	< 500	500 to 5000				Cn1cc(-c2cccc(S(=O)(=O)N3CCCC3)c2)c2ccccc2c1=O [Example 7, 2-methyl-4-(3-pyrrolidin-1-yl-sulfonylphenyl)isoquinolin-1-one]	
			< 500	500 to 5000	> 5000	COc1cc(-c2nc(CS(C)(=O)=O)ncc2Oc2ccc(F)cc2F)cn(C)c1=O [Example 146, 5-[5-(2,4-difluorophenoxy)-2-(methylsulfonylmethyl)pyrimidin-4-yl]-3-methoxy-1-methylpyridin-2-one]	
< 500	< 500	< 500				Cn1cc(-c2ccc3c(=O)n(C)cc(-c4cc(NS(C)(=O)=O)c(F)cc4F)c3c2)cn1 [Example 43, N-[2,4-difluoro-5-[2-methyl-6-(1-methylpyrazol-4-yl)-1-oxoisoquinolin-4-yl]phenyl]methane-sulfonamide]	
			< 500			CCS(=O)(=O)Nc1ccc(Oc2ccc(F)cc2F)c(-c2cc(O)c(=O)n(C)c2)c1 [Example 451, N-[4-(2,4-difluorophenoxy)-3-(5-hydroxy-1-methyl-6-oxopyridin-3-yl)phenyl]ethanesulfonamide]	IC50 [1, 7]: < 500 nM; IC50 [3, 9]: > 5000 nM
< 500	500 to 5000	< 500				Cc1ccc(-c2cn(C)c(=O)c3ccccc23)cc1NS(C)(=O)=O [Example 17, N-[2-methyl-5-(2-methyl-1-oxoisoquinolin-4-yl)phenyl] methanesulfonamide]	
